Article PMC6923382, “Small molecules that inhibit TNF signalling by stabilising an asymmetric form of the trimer” (Nature Communications, 2019)
Where “and” joins values, the source holds several entries; their conditions need not be identical. Equal values may be shown once. Read-outs that look alike come from different tables or passages of the source.

Experiment: Blood exposure of UCB-9260 in the mouse models
Format: in vivo
Details: for concentration at 1 h: zymosan model
[1] = 150mg/kg, CAIA model, individual mice

Cc1ccc(C)c(Cn2c(C(O)c3ccncc3)nc3ccc(-c4cnn(C)c4)cc32)c1 (centres unmarked) [UCB-9260]
concentration at 0.5 h (10mg/kg, human TNF neutrophilia model, individual mice, 0.5h post dose, read-out: Total exposure): 474.6 nM and 924.2 nM and 1089.9 nM | concentration at 0.5 h (10mg/kg, human TNF neutrophilia model, individual mice, read-out: Free exposure): 26.2 nM and 11.4 nM and 22.2 nM | concentration at 0.5 h (10mg/kg, mouse TNF neutrophilia model, individual mice, 0.5h post dose, read-out: Total exposure): 1244.4 nM and 1494.9 nM | concentration at 0.5 h (10mg/kg, mouse TNF neutrophilia model, individual mice, read-out: Free exposure): 29.2 nM and 29.9 nM | concentration at 1 h (10mg/kg, individual mice, read-out: free exposure 1h post dose): 2.5 nM and 2.4 nM and 0.6 nM and 1.0 nM and 1.8 nM and 4.0 nM and 2.1 nM and 2.3 nM | concentration at 1 h (10mg/kg, individual mice, read-out: total exposure 1h post dose): 102.2 nM and 99.4 nM and 24.6 nM and 40.4 nM and 74.6 nM and 166.9 nM and 86.4 nM and 96.3 nM | concentration at 0.5 h (30mg/kg, human TNF neutrophilia model, individual mice, 0.5h post dose, read-out: Total exposure): 10561.3 nM and 11259.5 nM and 3572.5 nM | concentration at 0.5 h (30mg/kg, human TNF neutrophilia model, individual mice, read-out: Free exposure): 85.7 nM and 253.5 nM and 270.2 nM | concentration at 0.5 h (30mg/kg, mouse TNF neutrophilia model, individual mice, 0.5h post dose, read-out: Total exposure): 7504.0 nM and 10604.5 nM | concentration at 0.5 h (30mg/kg, mouse TNF neutrophilia model, individual mice, read-out: Free exposure): 239.5 nM and 180.1 nM | concentration at 1 h (30mg/kg, individual mice, read-out: free exposure 1h post dose): 92.9 nM and 80.2 nM and 78.8 nM and 67.6 nM and 46.9 nM and 54.7 nM and 89.2 nM | concentration at 1 h (30mg/kg, individual mice, read-out: total exposure 1h post dose): 3868.9 nM and 3340.4 nM and 3284.9 nM and 2814.8 nM and 1955.1 nM and 2278.1 nM and 3715.9 nM | concentration at 0.5 h (100mg/kg, human TNF neutrophilia model, individual mice, 0.5h post dose, read-out: Total exposure): 23486.3 nM and 36904.4 nM | concentration at 0.5 h (100mg/kg, human TNF neutrophilia model, individual mice, read-out: Free exposure): 698.5 nM and 563.7 nM | concentration at 0.5 h (100mg/kg, mouse TNF neutrophilia model, individual mice, 0.5h post dose, read-out: Total exposure): 80513.8 nM and 31681.7 nM | concentration at 0.5 h (100mg/kg, mouse TNF neutrophilia model, individual mice, read-out: Free exposure): 760.4 nM and 1932.3 nM | concentration at 1 h (100mg/kg, individual mice, read-out: free exposure 1h post dose): 700.8 nM and 684.7 nM and 194.3 nM and 787.1 nM and 495.2 nM and 309.3 nM and 1017.0 nM and 852.7 nM | concentration at 1 h (100mg/kg, individual mice, read-out: total exposure 1h post dose): 29201.0 nM and 28529.7 nM and 8095.9 nM and 32795.2 nM and 20631.9 nM and 12886.1 nM and 42373.7 nM and 35527.1 nM | Cave post 1st dose (free) (150 mg/kg B.I.D., CAIA model): 307 ± 74 nM | Cave post 1st dose total (150 mg/kg B.I.D., CAIA model): 12,808 ± 3,070 nM | Free UCB-9260, 1 hour [1]: 535.0 nM and 406.9 nM and 100.9 nM and 971.5 nM and 479.3 nM | Free UCB-9260, 6 hour [1]: 368.0 nM and 6.0 nM and 50.3 nM and 428.5 nM and 99.9 nM | Total UCB-9260, 1 hour [1]: 22.292 µM and 16.9554 µM and 4.206 µM and 40.4784 µM and 19.9726 µM and 13.3543 µM | Total UCB-9260, 6 hour [1]: 15.3347 µM and 0.2521 µM and 2.096 µM and 17.8525 µM and 4.1624 µM and 34.4762 µM | concentration at 0.5 h (300mg/kg, human TNF neutrophilia model, individual mice, 0.5h post dose, read-out: Total exposure): 57489.1 nM and 49482.4 nM | concentration at 0.5 h (300mg/kg, human TNF neutrophilia model, individual mice, read-out: Free exposure): 996.6 nM and 1379.7 nM | concentration at 0.5 h (300mg/kg, mouse TNF neutrophilia model, individual mice, 0.5h post dose, read-out: Total exposure): 47166.3 nM and 48883.6 nM | concentration at 0.5 h (300mg/kg, mouse TNF neutrophilia model, individual mice, read-out: Free exposure): 1511.9 nM and 1132.0 nM | concentration at 1 h (300mg/kg, individual mice, read-out: free exposure 1h post dose): 551.7 nM and 816.2 nM and 450.0 nM and 187.4 nM and 584.7 nM and 1013.9 nM and 538.9 nM and 1275.4 nM | concentration at 1 h (300mg/kg, individual mice, read-out: total exposure 1h post dose): 22987.2 nM and 34009.1 nM and 18750.9 nM and 7806.7 nM and 24360.9 nM and 42244.6 nM and 22455.4 nM and 53141.6 nM | concentration at 0.5 h (Balb/c, mouse, blood, oral, 10 mg/kg, 10 mg/kg p.o., human TNF neutrophilia model, mean n=3 ± s.e.m., read-out: Blood concentration 0.5h post dose total): 830 ± 184 nM | concentration at 0.5 h (Balb/c, mouse, blood, oral, 10 mg/kg, 10 mg/kg p.o., mouse TNF neutrophilia model, Fu 2.4%, read-out: Blood concentration 0.5h post dose (free)): 32 ± 2 nM | concentration at 0.5 h (Balb/c, mouse, blood, oral, 10 mg/kg, 10 mg/kg p.o., mouse TNF neutrophilia model, mean n=3 ± s.e.m., read-out: Blood concentration 0.5h post dose total): 1320 nM | concentration at 0.5 h (Balb/c, mouse, blood, oral, 10 mg/kg, mouse TNF neutrophilia model, individual mice, 0.5h post dose, read-out: Total exposure): 1220 nM | concentration at 0.5 h (Balb/c, mouse, blood, oral, 10 mg/kg, mouse TNF neutrophilia model, individual mice, read-out: Free exposure): 35.9 nM | concentration at 0.5 h (Balb/c, mouse, blood, oral, 30 mg/kg, 30 mg/kg p.o., mouse TNF neutrophilia model, Fu 2.4%, read-out: Blood concentration 0.5h post dose (free)): 225 ± 23 nM | concentration at 0.5 h (Balb/c, mouse, blood, oral, 30 mg/kg, 30 mg/kg p.o., mouse TNF neutrophilia model, mean n=3 ± s.e.m., read-out: Blood concentration 0.5h post dose total): 9360 nM | concentration at 0.5 h (Balb/c, mouse, blood, oral, 30 mg/kg, mouse TNF neutrophilia model, individual mice, 0.5h post dose, read-out: Total exposure): 9980 nM | concentration at 0.5 h (Balb/c, mouse, blood, oral, 30 mg/kg, mouse TNF neutrophilia model, individual mice, read-out: Free exposure): 254 nM | concentration at 0.5 h (Balb/c, mouse, blood, oral, 100 mg/kg, 100 mg/kg p.o., human TNF neutrophilia model, Fu 2.4%, read-out: Blood concentration 0.5h post dose (free)): 716 ± 93 nM | concentration at 0.5 h (Balb/c, mouse, blood, oral, 100 mg/kg, 100 mg/kg p.o., human TNF neutrophilia model, mean n=3 ± s.e.m., read-out: Blood concentration 0.5h post dose total): 29800 nM
